# Reference: US20240336972A1, “METHODS FOR SELECTING MELANOMA PATIENTS FOR THERAPY AND METHODS OF REDUCING OR PREVENTING MELANOMA METASTASIS” (Oregon Health & Science University, priority 2021, published 2024)
# Entries after “also recorded” stand apart in the source; their conditions may differ.
# How the values were obtained:
# [1] = tested on: melanocytic atypia and melanoma initiation markers; details: in vivo; cited from earlier work
# [2] = tested on: A375 cells; details: cited from earlier work
# [3] = tested on: melanoma metastasis; details: mouse, in vivo; cited from earlier work
# [4] = tested on: A375 melanoma cells; assay: RNA-seq of A375 melanoma cells before and after treatment with fluvastatin; type: cell-based, human
# Description: Characterization of the transcriptome in human melanoma cells exposed to fluvastatin The effect of statins on the melanoma transcriptome was characterized using a well-established melanoma cell line. Human melanoma cell line A375 (a generous gift of Dr John Letterio, Case Western Reserve University, Cleveland, OH) were maintained in standard growth media consisting of RPMI 1640 (Thermo Fisher Scientific, Waltham, MA) b 10% fetal bovine serum p 2 mM glutamine and grown in a 5% carbon dioxide-humidified atmosphere at 37° C. Cells were tested biannually and shown to be negative for mycoplasma contamination using the Mycoplasma Detection kit (MycoAlert, Lonza, Basel, Switzerland). For gene expression studies, A375 cells were seeded at 2.5E6 per […] and allowed to adhere overnight. Test samples (in triplicate) were treated with fluvastatin (purchased from Millipore Sigma, St. […] Untreated control cells grown side by side were used as the reference control for differential expression analysis. RNA was quantified using the Qubit Broad Range RNA kit (catalog #Q10210; Thermo Fisher Scientific) and diluted to 50 ng/ml for RNA-seq.
# Sequencing reads generated from the Illumina HiSeq platform (Illumina, San Diego, CA) were assessed for quality and trimmed for adapter sequences using TrimGalore!, version 0.4.2 (Babraham Bioinformatics, Cambridge, United Kingdom), a wrapper script for FastQC and cutadapt. Reads that passed quality control were subsequently aligned to the human reference genome (GRCh38) using STAR aligner, version 2.5.1. Sequence alignment was guided using the GENCODE annotation for hg38. The aligned reads were analyzed for differential expression using Cufflinks, version 2.2.1, an RNA-seq analysis package that reports the fragments per kilobase of exon per million mapped for each gene. A differential analysis report was generated using the cuffdiff command performed in a pairwise manner for each group. Differential genes were identified using a significance cutoff of q<0.05. The differential expression profiles were then used as input in iPathwayGuide (Advaita Bioinformatics, Ann Arbor, MI) for pathway analysis.
# [5] = fluvastatin 3 µM, 24 hours, vs untreated control
# [6] = fluvastatin 3 µM, 24 hours, vs untreated control, SkylineDx profile gene
compound,measurement,setting,value
"CC[C@H](C)C(=O)O[C@H]1C[C@@H](C)C=C2C=C[C@H](C)[C@H](CC[C@@H]3C[C@@H](O)CC(=O)O3)[C@H]21 [lovastatin, Lovastatin]",melanocytic atypia or other melanoma initiation markers,[1],did not identify any significant decreases
"CC(C)c1c(C(=O)Nc2ccccc2)c(-c2ccccc2)c(-c2ccc(F)cc2)n1CC[C@@H](O)C[C@@H](O)CC(=O)O [atorvastatin, Atorvastatin]",migration and invasion,[2]; Matrigel transwell assay,decreasing
same,isoprenylation of RhoC,[2],decreases
same,metastasis,[3],decreasing
CC(C)n1c(/C=C/C(O)CC(O)CC(=O)O)c(-c2ccc(F)cc2)c2ccccc21 (centres unmarked) [Fluvastatin],"expression of genes included in melanoma prognostic tests (DecisionDx-Melanoma, Merlin Assay)",[4],significantly altered
same,expression of genes used in a diagnostic test that distinguishes melanoma from nevi (myPath Melanoma),[4],did not alter; also recorded: did not affect
same,effect on the metastatic gene expression profile of melanoma,[4]; 3 μM concentration for 24 hours,effectively reverses
same,SLC16A1 fold change,"[4]; after fluvastatin exposure, q=0.062, not statistically significant",0.797
same,BUB1 Log2 Fold Change,[4]; [5],−0.7319
same,CCND3 Log2 Fold Change,[4]; [5],−0.7194
same,CDKN1A Log2 Fold Change,[4]; [5],1.3053
same,CDKN1C Log2 Fold Change,[4]; [5],3.2643
same,CUL1 Log2 Fold Change,[4]; [5],−0.3847
same,FGF2 Log2 Fold Change,[4]; [5],−0.5791
same,KIFC1 Log2 Fold Change,[4]; [5],−0.4213
same,MAGEA1 Log2 Fold Change,[4]; [5],−0.4357
same,MAGEA3 Log2 Fold Change,[4]; [5],−0.4574
same,MAGEA4 Log2 Fold Change,[4]; [5],−0.2919
same,MAGEA6 Log2 Fold Change,[4]; [5],−0.4529
same,MAGED1 Log2 Fold Change,[4]; [5],0.7222
same,S1PR5 Log2 Fold Change,[4]; [5],−1.3212
same,SOX4 Log2 Fold Change,[4]; [5],−0.4139
same,TGFBRAP1 Log2 Fold Change,[4]; [5],−0.3389
same,AQP3 Log2 Fold Change,"[4]; fluvastatin 3 µM, 24 hours, vs untreated control, Castle Biosciences profile gene",3.2162
same,K14 Log2 Fold Change,"[4]; fluvastatin 3 µM, 24 hours, vs untreated control, Castle Biosciences profile gene (keratin 14)",2.8530
same,CXCL8 Log2 Fold Change,[4]; [6],0.8218
same,ITGB3 Log2 Fold Change,[4]; [6],0.5304
same,PLAT Log2 Fold Change,[4]; [6],1.7389
same,differentially expressed genes identified,[4]; significance cutoff q<0.05,"2,615"
